Each structure is given as a SMILES string. Active and inactive are the calls of the source. The calls are words filed in the database; no cut-off is given here. Where only a bound is given, the exact number is not on record here.

The IC50 is the concentration that gives 50% inhibition.

Test [1] concerns the target T1, Amine oxidase [copper-containing] 3 (Rattus norvegicus, UniProt O08590).
T1 sequence (O08590 whole entry): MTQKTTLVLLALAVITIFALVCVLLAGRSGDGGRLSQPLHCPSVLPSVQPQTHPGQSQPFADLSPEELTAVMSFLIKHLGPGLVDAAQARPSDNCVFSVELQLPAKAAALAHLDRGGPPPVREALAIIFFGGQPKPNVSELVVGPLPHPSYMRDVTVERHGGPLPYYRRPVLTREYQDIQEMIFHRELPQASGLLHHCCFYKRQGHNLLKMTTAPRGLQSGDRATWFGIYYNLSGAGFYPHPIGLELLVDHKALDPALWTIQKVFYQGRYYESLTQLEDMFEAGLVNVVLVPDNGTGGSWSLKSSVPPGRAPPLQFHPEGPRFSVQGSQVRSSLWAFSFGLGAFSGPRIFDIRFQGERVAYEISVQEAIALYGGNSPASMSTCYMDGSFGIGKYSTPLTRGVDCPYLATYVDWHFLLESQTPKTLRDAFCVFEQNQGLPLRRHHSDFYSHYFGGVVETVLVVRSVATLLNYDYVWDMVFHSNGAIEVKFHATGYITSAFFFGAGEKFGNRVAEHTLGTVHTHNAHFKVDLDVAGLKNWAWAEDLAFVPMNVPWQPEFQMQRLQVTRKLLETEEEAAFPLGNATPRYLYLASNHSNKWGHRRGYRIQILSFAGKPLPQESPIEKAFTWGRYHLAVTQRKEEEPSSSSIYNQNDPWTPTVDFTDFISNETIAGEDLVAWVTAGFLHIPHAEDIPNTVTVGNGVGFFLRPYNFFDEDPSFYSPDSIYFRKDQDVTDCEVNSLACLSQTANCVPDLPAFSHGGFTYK
In words: Inhibition of rat VAP-1 expressed in CHO cells using [14C]-benzylamine as substrate preincubated for 30 mins prior to substrate addition measured after 1 hr by scintillation spectrometric analysis. It counts as cell-based.

Test [2] concerns the target T2, Amine oxidase [copper-containing] 3 (Homo sapiens, UniProt Q16853).
T2 sequence (Q16853 whole entry): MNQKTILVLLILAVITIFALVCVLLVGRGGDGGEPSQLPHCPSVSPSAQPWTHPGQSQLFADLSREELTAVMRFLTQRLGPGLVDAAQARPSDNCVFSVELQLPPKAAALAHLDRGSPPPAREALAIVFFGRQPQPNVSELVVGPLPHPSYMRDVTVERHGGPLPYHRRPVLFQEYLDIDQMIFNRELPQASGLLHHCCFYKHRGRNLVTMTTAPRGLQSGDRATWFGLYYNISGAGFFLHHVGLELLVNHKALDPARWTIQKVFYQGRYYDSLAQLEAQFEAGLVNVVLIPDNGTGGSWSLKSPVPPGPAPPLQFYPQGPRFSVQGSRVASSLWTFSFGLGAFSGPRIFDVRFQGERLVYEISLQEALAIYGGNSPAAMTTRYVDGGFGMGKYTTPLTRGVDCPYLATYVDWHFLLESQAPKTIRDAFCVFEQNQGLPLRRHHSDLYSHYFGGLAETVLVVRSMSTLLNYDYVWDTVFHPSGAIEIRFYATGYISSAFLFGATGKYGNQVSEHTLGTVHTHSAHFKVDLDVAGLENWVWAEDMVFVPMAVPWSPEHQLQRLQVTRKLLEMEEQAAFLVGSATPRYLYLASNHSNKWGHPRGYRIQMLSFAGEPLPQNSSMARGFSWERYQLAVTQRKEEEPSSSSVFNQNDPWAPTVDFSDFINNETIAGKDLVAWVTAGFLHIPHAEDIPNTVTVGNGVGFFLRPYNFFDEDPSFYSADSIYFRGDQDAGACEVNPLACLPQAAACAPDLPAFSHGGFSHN
As to the kind of experiment: Inhibition of human VAP-1 expressed in CHO cells using [14C]-benzylamine as substrate preincubated for 30 mins prior to substrate addition measured after 1 hr by scintillation spectrometric analysis. It counts as cell-based.

Test [3] has as its target T3, Amine oxidase [flavin-containing] B (Homo sapiens, UniProt P27338).
T3 sequence (P27338 whole entry): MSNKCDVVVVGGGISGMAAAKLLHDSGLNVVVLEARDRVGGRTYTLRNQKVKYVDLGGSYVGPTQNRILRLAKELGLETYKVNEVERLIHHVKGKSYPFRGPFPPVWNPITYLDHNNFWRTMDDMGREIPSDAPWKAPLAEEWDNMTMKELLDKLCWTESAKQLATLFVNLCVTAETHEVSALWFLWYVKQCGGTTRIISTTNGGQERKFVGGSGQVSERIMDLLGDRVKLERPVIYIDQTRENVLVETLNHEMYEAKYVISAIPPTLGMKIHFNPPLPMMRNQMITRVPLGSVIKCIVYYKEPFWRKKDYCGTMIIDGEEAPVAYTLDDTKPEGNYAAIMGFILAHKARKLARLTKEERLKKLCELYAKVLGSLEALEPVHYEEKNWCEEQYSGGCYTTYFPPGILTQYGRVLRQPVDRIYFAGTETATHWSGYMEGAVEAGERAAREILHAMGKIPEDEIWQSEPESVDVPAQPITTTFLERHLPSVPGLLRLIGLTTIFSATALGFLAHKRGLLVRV
As to the kind of experiment: Inhibition of human recombinant MAO-B using benzylamine as substrate after 1 hr by fluorometric assay.

In test [4] the target is T4, Amine oxidase [flavin-containing] A (Homo sapiens, UniProt P21397).
T4 sequence (P21397 whole entry): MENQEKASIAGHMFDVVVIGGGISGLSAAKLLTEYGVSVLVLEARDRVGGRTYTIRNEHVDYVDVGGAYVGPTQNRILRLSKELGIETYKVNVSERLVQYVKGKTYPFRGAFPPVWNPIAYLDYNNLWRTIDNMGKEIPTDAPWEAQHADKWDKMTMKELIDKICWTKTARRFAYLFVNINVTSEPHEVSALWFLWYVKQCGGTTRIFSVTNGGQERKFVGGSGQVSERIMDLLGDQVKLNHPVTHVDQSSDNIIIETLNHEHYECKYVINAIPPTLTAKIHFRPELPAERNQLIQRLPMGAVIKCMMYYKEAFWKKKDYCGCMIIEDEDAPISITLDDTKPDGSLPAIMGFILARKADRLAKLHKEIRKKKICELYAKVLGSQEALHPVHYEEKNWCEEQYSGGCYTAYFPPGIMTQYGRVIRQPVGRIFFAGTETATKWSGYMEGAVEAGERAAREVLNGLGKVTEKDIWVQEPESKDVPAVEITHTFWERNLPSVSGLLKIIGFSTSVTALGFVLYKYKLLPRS
In words: Inhibition of human recombinant MAO-A using 5-hydroxytryptamine as substrate after 1 hr by fluorometric assay.

The species named for test [5] is Homo sapiens. In words: Selectivity ratio of IC50 for human recombinant MAO-A to IC50 for human VAP-1.
For test [6], the species on record is Homo sapiens. In words: Selectivity ratio of IC50 for human recombinant MAO-B to IC50 for human VAP-1.
Test [7] deals with Rattus norvegicus. As to the kind of experiment: Inhibition of VAP-1 in streptozotocin-induced diabetic Sprague-Dawley rat plasma using [14C]-benzylamine as substrate at 10 mg/kg, po administered for 2 weeks after streptozotocin-challenge by scintillation spectrometric analysis. The class given is functional, organism-based. The arrangement: dose 10 mg/kg.
For test [8], the system named is Rattus norvegicus. In words: Inhibition of ocular permeability in streptozotocin-induced diabetic Sprague-Dawley rat at 10 mg/kg, po administered for 2 weeks after streptozotocin-challenge measured 24 hrs after final administration of compound. The following applies: Eye. The class given is functional, organism-based. The arrangement: dose 10 mg/kg.

As for `Cc1cccc2[nH]c(N)nc12`, the IC50 in test [1] was 1 µM; in test [2], greater than 100 µM.

Turning to `Nc1nc(-c2ccccc2)c[nH]1`, the values for the half-maximal inhibitory concentration (IC50) in test [1] and in test [2] were 44 µM and greater than 100 µM, respectively.

Consider `Nc1nc(Cc2ccccc2)c[nH]1`, for which the concentration for half-maximal inhibition (IC50) in test [1] was found to be 0.42 µM; in test [2], 32 µM.

Take `CC(=O)Nc1nc(CCc2ccc(NC(=N)N)cc2)cs1`: the IC50 in test [3] is 60 µM; in test [4], greater than 100 µM.

`Nc1ncc(CCc2ccccc2)[nH]1`: the half-maximal inhibitory concentration (IC50) in test [1] is 4.8 µM; in test [2], greater than 100 µM.

In the case of `N=C(N)Nc1ccccc1` [PHENYLGUANIDINE], the IC50 is 78 µM in test [1] and greater than 100 µM in test [2].

Regarding `Nc1nc2ccccc2[nH]1`, the IC50 in test [1] is 1 µM; in test [2] it was 4.1 µM.

On to `CC(=O)Nc1nc(CCc2ccc(CCc3c[nH]c(N)n3)cc2)cs1`, for which the concentration for half-maximal inhibition (IC50) in test [1] is 0.018 µM; in test [2], 2.2 µM.

Regarding `Cn1c(N)nc2ccccc21`, the IC50 was 80 µM in test [1] and greater than 100 µM in test [2].

For the compound `Cc1ccc2nc(N)[nH]c2c1`, the IC50 is 9.3 µM in test [1] and greater than 100 µM in test [2].

For the compound `c1ccc(NC2=NCCN2)cc1`, the half-maximal inhibitory concentration (IC50) in test [1] and in test [2] was greater than 100 µM in each case.

Regarding `Nc1ncc[nH]1`, the IC50 was 90 µM in test [1] and greater than 100 µM in test [2].

With `NC1=NCCN1c1ccccc1`, the 50% inhibitory concentration (IC50) in test [1] and in test [2] was greater than 100 µM in each case.

As to `NCc1nc2ccccc2[nH]1`, the IC50 in test [1] and in test [2] was greater than 100 µM each time.

Turning to `Nc1cc2ccccc2[nH]1`, the values for the IC50 in test [1] and in test [2] were 63 µM and greater than 100 µM, respectively.

Take `CC(=O)Nc1nc(CCc2ccc(Cc3c[nH]c(N)n3)cc2)cs1`: the 50% inhibitory concentration (IC50) in test [1] was 0.0051 µM; in test [3] it was 11 µM; in test [2], 0.019 µM; in test [4] it was greater than 100 µM. Besides, the Ratio IC50 in the test filed under Homo sapiens [5] and in the test listed under Homo sapiens [6] was greater than 580 each time. In addition, the inhibition entry in the test with Rattus norvegicus [7] and in the test on Rattus norvegicus [8] was “Active” in each case.

As to `c1ccc2[nH]cnc2c1` [BENZIMIDAZOLE], the IC50 in test [1] and in test [2] was greater than 100 µM throughout.

Regarding `CC(=O)Nc1nc(CCc2ccc(-c3c[nH]c(N)n3)cc2)cs1`, the concentration for half-maximal inhibition (IC50) in test [1] worked out at 0.15 µM; in test [2], 13 µM.

The record behind these values is ChEMBL document CHEMBL2390878, “Novel 1H-imidazol-2-amine derivatives as potent and orally active vascular adhesion protein-1 (VAP-1) inhibitors for diabetic macular edema treatment” (Bioorg Med Chem, 2013).
